system: windgrass; assay: Test Example 4: herbicidal effect by soil treatment (Table 19, symbol L); assay type: in vivo, windgrass (Apera spica-venti); conditions: amount of applied herbicide 320 g/ha
In short: (§1)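 Pre-emergence style soil spray: seeds under ~1.5 cm sterilized diluvial soil received a uniform coat of emulsion diluted to the predetermined herbicide amount. Greenhouse 25–30° C; readout at week three on previously defined criteria.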

Structure (SMILES) | herbicidal effect rating, L: windgrass
CCCC(=O)Oc1c(C)nn(C)c(=O)c1-c1c(-c2ccc3c(c2)OCCO3)sc2ccccc12 [1-090] | 0 (Herbicidal rate of 5% or less (almost no effect))
COC(=O)Oc1c(C)nn(C)c(=O)c1-c1c(-c2ccc3c(c2)OCCO3)sc2ccccc12 [1-091] | 0 (Herbicidal rate of 5% or less (almost no effect))
Cc1nn(C)c(=O)c(-c2c(-c3ccc4c(c3)OCCO4)sc3ccccc23)c1OC(=O)SC(C)(C)C [1-092] | 0 (Herbicidal rate of 5% or less (almost no effect))

system: blackgrass; assay: Test Example 5: herbicidal effect by foliage application, plastic box (Table 20, symbol J); assay type: in vivo, blackgrass (Alopecurus myosuroides); conditions: foliage application, AAH 320 g/ha, three weeks after application
In short: (§2)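 Plants were sown into sterilized diluvial soil under about 1.5 cm cover and kept in a greenhouse at 25° C. to 30° C. Fourteen days on, foliage received an even spray of the diluted emulsion. Herbicidal or crop effect was judged three weeks afterwards.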

Structure (SMILES) | J: blackgrass, herbicidal effect
CCCC(=O)Oc1c(C)nn(C)c(=O)c1-c1c(-c2ccc3c(c2)OCCO3)sc2ccccc12 [1-090] | 2 (Herbicidal rate of 20% or more and less than 40%)
COC(=O)Oc1c(C)nn(C)c(=O)c1-c1c(-c2ccc3c(c2)OCCO3)sc2ccccc12 [1-091] | 3 (Herbicidal rate of 40% or more and less than 70%)
Cc1nn(C)c(=O)c(-c2c(-c3ccc4c(c3)OCCO4)sc3ccccc23)c1OC(=O)SC(C)(C)C [1-092] | 0 (Herbicidal rate of 5% or less (almost no effect))

system: Italian ryegrass; assay: Test Example 4: herbicidal effect by soil treatment (Table 19, symbol K); assay type: in vivo, Italian ryegrass (Lolium multiflorum); conditions: amount of applied herbicide 320 g/ha
In short: as §1

Structure (SMILES) | herbicidal effect rating, K: Italian ryegrass
CCCC(=O)Oc1c(C)nn(C)c(=O)c1-c1c(-c2ccc3c(c2)OCCO3)sc2ccccc12 [1-090] | 0 (Herbicidal rate of 5% or less (almost no effect))
COC(=O)Oc1c(C)nn(C)c(=O)c1-c1c(-c2ccc3c(c2)OCCO3)sc2ccccc12 [1-091] | 0 (Herbicidal rate of 5% or less (almost no effect))
Cc1nn(C)c(=O)c(-c2c(-c3ccc4c(c3)OCCO4)sc3ccccc23)c1OC(=O)SC(C)(C)C [1-092] | 0 (Herbicidal rate of 5% or less (almost no effect))

system: Chinese sprangletop; assay: Test Example 3: herbicidal effect by foliage application, Wagner pot (Table 18, symbol D); assay type: in vivo, chinese sprangletop (Leptochloa chinensis); conditions: 320 g/ha
In short: (§3)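 Plants were sown in alluvial soil held under 0.1–0.5 cm standing water and grown 14 days in a greenhouse at 25–30 °C. An emulsifiable formulation, water-diluted to the set dose, was then sprayed onto the foliage, and effects were scored three weeks later using previously defined criteria.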

Structure (SMILES) | herbicidal effect on D (Chinese sprangletop), rating 0-5
CCCC(=O)Oc1c(C)nn(C)c(=O)c1-c1c(-c2ccc3c(c2)OCCO3)sc2ccccc12 [1-090] | 1 (Herbicidal rate of 5% or more and less than 20%)
COC(=O)Oc1c(C)nn(C)c(=O)c1-c1c(-c2ccc3c(c2)OCCO3)sc2ccccc12 [1-091] | 1 (Herbicidal rate of 5% or more and less than 20%)
Cc1nn(C)c(=O)c(-c2c(-c3ccc4c(c3)OCCO4)sc3ccccc23)c1OC(=O)SC(C)(C)C [1-092] | 1 (Herbicidal rate of 5% or more and less than 20%)

system: redroot pigweed; assay: Test Example 5: herbicidal effect by foliage application, plastic box (Table 20, symbol N); assay type: in vivo, redroot pigweed (Amaranthus retroflexus); conditions: foliage application, AAH 320 g/ha, three weeks after application
In short: as §2

Structure (SMILES) | N: redroot pigweed, herbicidal effect
CCCC(=O)Oc1c(C)nn(C)c(=O)c1-c1c(-c2ccc3c(c2)OCCO3)sc2ccccc12 [1-090] | 0 (Herbicidal rate of 5% or less (almost no effect))
COC(=O)Oc1c(C)nn(C)c(=O)c1-c1c(-c2ccc3c(c2)OCCO3)sc2ccccc12 [1-091] | 5 (Herbicidal rate of 90% or more (almost completely withered))
Cc1nn(C)c(=O)c(-c2c(-c3ccc4c(c3)OCCO4)sc3ccccc23)c1OC(=O)SC(C)(C)C [1-092] | 0 (Herbicidal rate of 5% or less (almost no effect))

system: lambsquarters; assay: Test Example 4: herbicidal effect by soil treatment (Table 19, symbol O); assay type: in vivo, lambsquarters (Chenopodium album); conditions: amount of applied herbicide 320 g/ha
In short: as §1

Structure (SMILES) | herbicidal effect rating, O: lambsquarters
CCCC(=O)Oc1c(C)nn(C)c(=O)c1-c1c(-c2ccc3c(c2)OCCO3)sc2ccccc12 [1-090] | 2 (Herbicidal rate of 20% or more and less than 40%)
COC(=O)Oc1c(C)nn(C)c(=O)c1-c1c(-c2ccc3c(c2)OCCO3)sc2ccccc12 [1-091] | 4 (Herbicidal rate of 70% or more and less than 90%)
Cc1nn(C)c(=O)c(-c2c(-c3ccc4c(c3)OCCO4)sc3ccccc23)c1OC(=O)SC(C)(C)C [1-092] | 0 (Herbicidal rate of 5% or less (almost no effect))

system: lambsquarters; assay: Test Example 5: herbicidal effect by foliage application, plastic box (Table 20, symbol O); assay type: in vivo, lambsquarters (Chenopodium album); conditions: foliage application, AAH 320 g/ha, three weeks after application
In short: as §2

Structure (SMILES) | O: lambsquarters, herbicidal effect
CCCC(=O)Oc1c(C)nn(C)c(=O)c1-c1c(-c2ccc3c(c2)OCCO3)sc2ccccc12 [1-090] | 2 (Herbicidal rate of 20% or more and less than 40%)
COC(=O)Oc1c(C)nn(C)c(=O)c1-c1c(-c2ccc3c(c2)OCCO3)sc2ccccc12 [1-091] | 4 (Herbicidal rate of 70% or more and less than 90%)
Cc1nn(C)c(=O)c(-c2c(-c3ccc4c(c3)OCCO4)sc3ccccc23)c1OC(=O)SC(C)(C)C [1-092] | 3 (Herbicidal rate of 40% or more and less than 70%)

system: late watergrass; assay: Test Example 1: herbicidal activity, application before weed generation under submerged conditions (Table 16, symbol A); assay type: in vivo, late watergrass (Echinochloa oryzicola); conditions: 320 g/ha applied herbicide
In short: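 Submerged Wagner pots (alluvial soil, 4 cm water) sown with weed seeds and planted with 2.5-leaf rice seedlings; emulsifiable concentrate diluted in water applied to water surface on sowing day. Held in greenhouse at 25-30 °C; injury scored 0-5 by herbicidal rate after three weeks.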

Structure (SMILES) | Herbicidal effect on A: late watergrass (grade 0-5)
CCCC(=O)Oc1c(C)nn(C)c(=O)c1-c1c(-c2ccc3c(c2)OCCO3)sc2ccccc12 [1-090] | 5 (Herbicidal rate of 90% or more (almost completely withered))
COC(=O)Oc1c(C)nn(C)c(=O)c1-c1c(-c2ccc3c(c2)OCCO3)sc2ccccc12 [1-091] | 5 (Herbicidal rate of 90% or more (almost completely withered))
Cc1nn(C)c(=O)c(-c2c(-c3ccc4c(c3)OCCO4)sc3ccccc23)c1OC(=O)SC(C)(C)C [1-092] | 5 (Herbicidal rate of 90% or more (almost completely withered))

system: velvetleaf; assay: Test Example 5: herbicidal effect by foliage application, plastic box (Table 20, symbol M); assay type: in vivo, velvetleaf (Abutilon theophrasti); conditions: foliage application, AAH 320 g/ha, three weeks after application
In short: as §2

Structure (SMILES) | M: velvetleaf, herbicidal effect
CCCC(=O)Oc1c(C)nn(C)c(=O)c1-c1c(-c2ccc3c(c2)OCCO3)sc2ccccc12 [1-090] | 4 (Herbicidal rate of 70% or more and less than 90%)
COC(=O)Oc1c(C)nn(C)c(=O)c1-c1c(-c2ccc3c(c2)OCCO3)sc2ccccc12 [1-091] | 5 (Herbicidal rate of 90% or more (almost completely withered))
Cc1nn(C)c(=O)c(-c2c(-c3ccc4c(c3)OCCO4)sc3ccccc23)c1OC(=O)SC(C)(C)C [1-092] | 5 (Herbicidal rate of 90% or more (almost completely withered))

system: persian speedwell; assay: Test Example 4: herbicidal effect by soil treatment (Table 19, symbol R); assay type: in vivo, Persian speedwell (Veronica persica); conditions: amount of applied herbicide 320 g/ha
In short: as §1

Structure (SMILES) | herbicidal effect rating, R: persian speedwell
CCCC(=O)Oc1c(C)nn(C)c(=O)c1-c1c(-c2ccc3c(c2)OCCO3)sc2ccccc12 [1-090] | 5 (Herbicidal rate of 90% or more (almost completely withered))
COC(=O)Oc1c(C)nn(C)c(=O)c1-c1c(-c2ccc3c(c2)OCCO3)sc2ccccc12 [1-091] | 5 (Herbicidal rate of 90% or more (almost completely withered))
Cc1nn(C)c(=O)c(-c2c(-c3ccc4c(c3)OCCO4)sc3ccccc23)c1OC(=O)SC(C)(C)C [1-092] | 4 (Herbicidal rate of 70% or more and less than 90%)

system: blackgrass; assay: Test Example 4: herbicidal effect by soil treatment (Table 19, symbol J); assay type: in vivo, blackgrass (Alopecurus myosuroides); conditions: amount of applied herbicide 320 g/ha
In short: as §1

Structure (SMILES) | herbicidal effect rating, J: blackgrass
CCCC(=O)Oc1c(C)nn(C)c(=O)c1-c1c(-c2ccc3c(c2)OCCO3)sc2ccccc12 [1-090] | 0 (Herbicidal rate of 5% or less (almost no effect))
COC(=O)Oc1c(C)nn(C)c(=O)c1-c1c(-c2ccc3c(c2)OCCO3)sc2ccccc12 [1-091] | 0 (Herbicidal rate of 5% or less (almost no effect))
Cc1nn(C)c(=O)c(-c2c(-c3ccc4c(c3)OCCO4)sc3ccccc23)c1OC(=O)SC(C)(C)C [1-092] | 0 (Herbicidal rate of 5% or less (almost no effect))

system: velvetleaf; assay: Test Example 4: herbicidal effect by soil treatment (Table 19, symbol M); assay type: in vivo, velvetleaf (Abutilon theophrasti); conditions: amount of applied herbicide 320 g/ha
In short: as §1

Structure (SMILES) | herbicidal effect rating, M: velvetleaf
CCCC(=O)Oc1c(C)nn(C)c(=O)c1-c1c(-c2ccc3c(c2)OCCO3)sc2ccccc12 [1-090] | 0 (Herbicidal rate of 5% or less (almost no effect))
COC(=O)Oc1c(C)nn(C)c(=O)c1-c1c(-c2ccc3c(c2)OCCO3)sc2ccccc12 [1-091] | 5 (Herbicidal rate of 90% or more (almost completely withered))
Cc1nn(C)c(=O)c(-c2c(-c3ccc4c(c3)OCCO4)sc3ccccc23)c1OC(=O)SC(C)(C)C [1-092] | 0 (Herbicidal rate of 5% or less (almost no effect))

system: barnyard grass; assay: Test Example 3: herbicidal effect by foliage application, Wagner pot (Table 18, symbol H); assay type: in vivo, barnyard grass (Echinochloa crus-galli); conditions: 320 g/ha
In short: as §3

Structure (SMILES) | herbicidal effect on H (barnyard grass), rating 0-5
CCCC(=O)Oc1c(C)nn(C)c(=O)c1-c1c(-c2ccc3c(c2)OCCO3)sc2ccccc12 [1-090] | 5 (Herbicidal rate of 90% or more (almost completely withered))
COC(=O)Oc1c(C)nn(C)c(=O)c1-c1c(-c2ccc3c(c2)OCCO3)sc2ccccc12 [1-091] | 5 (Herbicidal rate of 90% or more (almost completely withered))
Cc1nn(C)c(=O)c(-c2c(-c3ccc4c(c3)OCCO4)sc3ccccc23)c1OC(=O)SC(C)(C)C [1-092] | 4 (Herbicidal rate of 70% or more and less than 90%)

system: Italian ryegrass; assay: Test Example 5: herbicidal effect by foliage application, plastic box (Table 20, symbol K); assay type: in vivo, Italian ryegrass (Lolium multiflorum); conditions: foliage application, AAH 320 g/ha, three weeks after application
In short: as §2

Structure (SMILES) | K: Italian ryegrass, herbicidal effect
CCCC(=O)Oc1c(C)nn(C)c(=O)c1-c1c(-c2ccc3c(c2)OCCO3)sc2ccccc12 [1-090] | 3 (Herbicidal rate of 40% or more and less than 70%)
COC(=O)Oc1c(C)nn(C)c(=O)c1-c1c(-c2ccc3c(c2)OCCO3)sc2ccccc12 [1-091] | 4 (Herbicidal rate of 70% or more and less than 90%)
Cc1nn(C)c(=O)c(-c2c(-c3ccc4c(c3)OCCO4)sc3ccccc23)c1OC(=O)SC(C)(C)C [1-092] | 0 (Herbicidal rate of 5% or less (almost no effect))

system: late watergrass; assay: Test Example 2: herbicidal activity, application during weed generation under submerged conditions (Table 17, symbol A); assay type: in vivo, late watergrass (Echinochloa oryzicola); conditions: AAH 320 g/ha; application during weed generation, submerged conditions
In short: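 Herbicide emulsion, diluted with water to the chosen amount, is applied onto 4 cm floodwater over alluvial soil where the weeds were co-sown and raised at 25–30° C. Application timing: 1–2 leaves. Assessment: three weeks afterwards.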

Structure (SMILES) | herbicidal effect rating, A: late watergrass
CCCC(=O)Oc1c(C)nn(C)c(=O)c1-c1c(-c2ccc3c(c2)OCCO3)sc2ccccc12 [1-090] | 4 (Herbicidal rate of 70% or more and less than 90%)
COC(=O)Oc1c(C)nn(C)c(=O)c1-c1c(-c2ccc3c(c2)OCCO3)sc2ccccc12 [1-091] | 3 (Herbicidal rate of 40% or more and less than 70%)
Cc1nn(C)c(=O)c(-c2c(-c3ccc4c(c3)OCCO4)sc3ccccc23)c1OC(=O)SC(C)(C)C [1-092] | 3 (Herbicidal rate of 40% or more and less than 70%)

system: southern crabgrass; assay: Test Example 4: herbicidal effect by soil treatment (Table 19, symbol F); assay type: in vivo, southern crabgrass (Digitaria ciliaris); conditions: amount of applied herbicide 320 g/ha
In short: as §1

Structure (SMILES) | herbicidal effect rating, F: southern crabgrass
CCCC(=O)Oc1c(C)nn(C)c(=O)c1-c1c(-c2ccc3c(c2)OCCO3)sc2ccccc12 [1-090] | 0 (Herbicidal rate of 5% or less (almost no effect))
COC(=O)Oc1c(C)nn(C)c(=O)c1-c1c(-c2ccc3c(c2)OCCO3)sc2ccccc12 [1-091] | 3 (Herbicidal rate of 40% or more and less than 70%)
Cc1nn(C)c(=O)c(-c2c(-c3ccc4c(c3)OCCO4)sc3ccccc23)c1OC(=O)SC(C)(C)C [1-092] | 0 (Herbicidal rate of 5% or less (almost no effect))

From US20230085307A1, “PYRIDAZINONE COMPOUND AND HERBICIDE” (NISSAN CHEMICAL CORPORATION, priority 2019, published 2023)
